Experimental data from PubChem BioAssay AID1417 (Emory University Molecular Libraries Screening Center, 2008).

Target: Induced myeloid leukemia cell differentiation protein Mcl-1 (Homo sapiens) (UniProt Q07820)
Experiment: Mcl-1 Noxa peptide disruption concentration-response – biochemical, TR-FRET, dose response (AID 1417)
Conditions: Mcl-1/Noxa peptide interaction, cell-free TR-FRET (terbium/rhodamine), 2 h; measured here: absolute IC50

Chain of Induced myeloid leukemia cell differentiation protein Mcl-1 (Homo sapiens) (Q07820 whole entry, looked up): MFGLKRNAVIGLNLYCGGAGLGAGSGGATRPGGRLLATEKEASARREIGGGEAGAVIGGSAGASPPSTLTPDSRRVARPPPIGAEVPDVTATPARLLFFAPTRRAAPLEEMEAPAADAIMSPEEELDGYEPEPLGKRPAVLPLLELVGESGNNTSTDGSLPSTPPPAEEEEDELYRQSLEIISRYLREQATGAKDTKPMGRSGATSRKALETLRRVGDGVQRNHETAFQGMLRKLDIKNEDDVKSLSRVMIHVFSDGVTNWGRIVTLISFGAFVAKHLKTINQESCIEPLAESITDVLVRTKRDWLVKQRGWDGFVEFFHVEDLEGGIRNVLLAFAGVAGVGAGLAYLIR

Row | SMILES | IC50 [µM]
1 | O=C1NC(=S)N/C1=C/c1cccn1-c1ccc([N+](=O)[O-])cc1 | > 54
2 | CCOc1ccc2nc(N3C(=O)/C(=C/c4ccc(Cl)cc4)NC3=S)sc2c1 | 1.55
3 | Oc1[nH]c(=S)sc1/C=C1\C(c2ccccc2)=Nc2ccccc21 | 8.66
4 | NC1=NC(=O)/C(=C/c2cn(CCC(=O)O)nc2-c2ccc(Cl)cc2)S1 | 5.91
5 | CCN(CC)c1nc2c3c(nc4c(c3c1C#N)CC(=O)N4c1ccc(Cl)cc1)NC(C)=N2 | 3.19
6 | C=C(C)C(=O)Nc1cccc(C2=NOC3(C2)C[C@H](C(N)=O)N(C(=O)C(c2ccccc2)c2ccccc2)C3)c1 (stereo not given in full) | 4.43
7 | Cc1ccc(C)c(S(=O)(=O)Nc2cc(SCC(=O)O)c(O)c3ccccc23)c1 | < 0.4
8 | Oc1ccc(N2CCN(c3ncnc4sc(-c5ccccc5)cc34)CC2)cc1 | 1.15
9 | c1ccc(CN=C2NN=C(c3cc4ccccc4o3)CS2)cc1 | > 54
10 | COc1ccc(C2=NN(c3nc(-c4ccccc4)c(CC(=O)O)s3)C(c3ccco3)C2)cc1 (stereo not given) | 11.9
11 | CCOC(=O)c1c(C)oc2c1c(C(c1ccncc1)N1CCOCC1)c(O)c1ccccc12 (stereo not given) | < 0.4
12 | CCN(c1ccc(NC(=O)COC(=O)CCc2nc3ccccc3n2-c2ccccc2)cc1)C(C)C | < 0.4
13 | O=C1/C(=C\c2ccccn2)SC(=S)N1c1ccc(S(=O)(=O)Nc2nccs2)cc1 | 2.69
14 | Cc1[nH]n(-c2ncc(-c3ccccc3)s2)c(=O)c1C(c1ccc(Cl)cc1)C(C#N)C#N (stereo not given) | 12.2
15 | CCN(CC)S(=O)(=O)c1cccc(C(=O)N/N=C/c2ccc(O)c(O)c2O)c1 | < 0.4
16 | Cc1ccc(OCC(=O)Nc2ccc(N3CCCC3)cc2)cc1C | 7.07
17 | O=C(O)c1ccc(N/N=C/c2ccc(OC(=O)c3cccc(Cl)c3)cc2)cc1 | 7.31
18 | COc1ccc2[nH]c3c4c(ccc3c2c1)C(=O)C=CC4=O | < 0.4
19 | CC(=O)c1ccc(-n2c(CCC(=O)O)ccc2-c2cccs2)cc1 | > 54
20 | O=c1c2ccccc2nc(-c2ccco2)n1-c1cccnc1 | > 54
21 | Nc1ncnc2oc(-c3ccco3)c(-c3ccco3)c12 | 3.7
22 | COc1ccc2c(=O)c3c(=O)n(-c4ccc(C)cc4)c(-c4ccccc4)nc3oc2c1 | > 54
23 | CCN(CCO)c1nc(SC)nc2c1sc1nc(-c3ccco3)c3c(c12)CCC3 | < 0.4
24 | O=C(Nc1ccc(Cl)cc1)N1CCc2[nH]c3ccccc3c2C1 | > 54
25 | Cc1c(Cc2ccccc2)c(NCCN(C)C)n2c(nc3ccccc32)c1C#N | 1.91
26 | CCOC(=O)/C=C(\C)Sc1cc(O)c2ccccc2c1O | < 0.4
27 | N/C(=N\N=C/c1ccc(-c2ccc(O)c(C(=O)O)c2)o1)N[N+](=O)[O-] | 2.65

Row | SMILES | IC50 [µM]
28 | COCCn1nnnc1C(c1ccc(O)c(OC)c1)N1CCc2ccccc2C1 (stereo not given) | < 0.4
29 | NC(=S)n1[nH]c(-c2ccc([N+](=O)[O-])cc2)c(N=Nc2ccc(O)cc2)c1=O | 3.13
30 | COc1ccc(/C=C2/C(=O)NC(=S)N(C3CC3)C2=O)cc1CN1C(=O)c2ccccc2C1=O | 3.11
31 | O=C(Nc1ccc2nc(-c3ccc4nc[nH]c4c3)[nH]c2c1)c1cccs1 | 2.7
32 | O=c1cc2c(=O)oc3cc(O)c(O)oc3c2c(O)c1O | < 0.4
33 | COc1cc(/C=N/NC(=O)c2ccc(CN3C(=O)c4cccc5cccc3c45)cc2)cc(OC)c1O | 3.43
34 | Cc1ccc(-c2nc3c(c(=O)[nH]c(=O)n3Cc3ccccc3)n2C)o1 | < 0.4
35 | Cc1cccc(NC(=O)CN2C(=O)N/C(=C/c3ccc(C)o3)C2=O)c1 | > 54
36 | CCOC(=O)N1CCN(c2c(NCCCN(CC)Cc3ccccc3)c(=O)c2=O)CC1 | 4.06
37 | COc1ccc(/C=C2/SC(=O)N(CCC(=O)Nc3ccc(S(=O)(=O)Nc4nccs4)cc3)C2=O)cc1 | 3.81
38 | CN(C)c1ccc(/C=C/c2ccc3c4ccccc4ccc3[n+]2-c2ccccc2)cc1 | > 54
39 | CCOC(=O)c1cc(-c2ccc(/C=C3/C(=O)NC(=O)C(C#N)=C3C)o2)ccc1Cl | < 0.4
40 | CN(C)c1ccc(NC(=O)c2ccc([N+](=O)[O-])cc2Cl)cc1 | > 54
41 | COc1ccc(N2CCN(C(=O)c3ccc(CSc4ccccc4)cc3)CC2)cc1 | > 54
42 | O=C(CN1CCN(c2ccc(O)cc2)CC1)Nc1cc([N+](=O)[O-])ccc1Cl | 6.48
43 | NC(=S)n1[nH]c(-c2ccc([N+](=O)[O-])cc2)c(N=Nc2ccccc2[N+](=O)[O-])c1=O | < 0.4
44 | COc1ccccc1C1NC=C([N+](=O)[O-])C=C1[N+](=O)[O-] (stereo not given) | > 54
45 | COc1ccc(C(=O)C[n+]2ccc(-c3nnc4n3CCCCC4)cc2)cc1 | 23.1
46 | COc1ccc(-c2csc(Nc3ccccc3)n2)cc1 | > 54
47 | COc1ccc(/C=C2\SC(=O)N(CCC(=O)Nc3ccc(S(=O)(=O)Nc4nccs4)cc3)C2=O)cc1 | < 0.4
48 | COc1ccc2nc(Nc3sc4c(c3C(N)=O)CCCC4)sc2c1 | < 0.4
49 | CCn1cc(C(=O)NCc2ccc3c(c2)OCO3)c2cc(OC)c(OC)cc2c1=O | > 54
50 | O=C1CCCC2=C1C(c1ccc(O)c(O)c1)c1c(ccc3ncccc13)N2 (stereo not given) | < 0.4
51 | NS(=O)(=O)c1ccc(NC(=S)NC(=O)/C=C/c2ccco2)cc1 | 6.75
52 | O=c1ccc2[n+]([O-])c3ccc(O)cc3oc-2c1 | > 54
53 | CC(=O)Nc1ccc(C2=NNC(=Nc3ccc(S(=O)(=O)N4CCOCC4)cc3)SC2)cc1 | < 0.4
54 | COc1ccc(-c2csc(NC(=O)CSc3nc(C)nc4sc(C(=O)O)c(C)c34)n2)cc1 | 8.23

Row | SMILES | IC50 [µM]
55 | COc1ccc(N2CCC(CNS(=O)(=O)c3cccc(C(F)(F)F)c3)C2)cc1 (stereo not given) | < 0.4
56 | COc1ccc2c(c1)c1ccc3c(c1n2C)C(=O)C=CC3=O | < 0.4
57 | CCOc1ccc(N=C2NC(=O)S/C2=C\c2ccc(O)cc2)cc1 | 1.26
58 | O=C(O)c1cccc2c1NC(c1cccc([N+](=O)[O-])c1)C1CC(Sc3ccccc3[N+](=O)[O-])C(Cl)C21 (stereo not given) | 2.25
59 | CN1c2ccccc2N(C)C1(C)c1ccccc1 | 1.12
60 | NC(=S)n1[nH]c(-c2ccc([N+](=O)[O-])cc2)c(N=Nc2cccc(Cl)c2)c1=O | 1.48
61 | Nc1scc2c(C(=O)N/N=C/c3ccc(Cl)cc3)nn(-c3ccccc3)c(=O)c12 | 1.32
62 | O=C1CSC(=S)N1/N=C/c1ccc(O)c(O)c1O | < 0.4
63 | C/C(=C\c1ccco1)C1Nc2cccc3cccc(c23)N1 | 3.68
64 | Cc1cccc(N=C2NC(=O)/C(=C/C=C/c3ccco3)S2)c1 | 13.5
65 | CN(C)c1ccc(C(CNC(=O)c2ccc(F)cc2)c2c[nH]c3ccccc23)cc1 (stereo not given) | > 54
66 | CC(/C=N/NC(=O)c1cc(-c2ccc3ccccc3c2)n[nH]1)=C\c1ccco1 | 4.91
67 | O=[N+]([O-])c1cc([N+](=O)[O-])c2cccnc2c1Oc1ccccc1O | 1.27
68 | COc1cc(O)c(C(=O)O)c(-c2cc(O)c(O)cc2C)c1 | < 0.4
69 | CCOC(=O)c1[nH]c2c(c1C)C(=O)CC(c1ccco1)C2 (stereo not given) | 5.64
70 | Cc1cccc(C(=O)NC(=S)NNC(=O)c2ccc(Cl)cc2)c1 | > 54
71 | CCc1ccc(S(=O)(=O)/N=C2\C=CC(=O)c3ccccc32)cc1 | < 0.4
72 | O=C1c2cccc3cc([N+](=O)[O-])cc(c23)C(=O)N1/N=C/c1ccc(O)cc1O | 1.52
73 | Cc1cc(C)n2c(SC/C(O)=C(\C#N)c3nc4ccccc4[nH]3)nnc2n1 | < 0.4
74 | O=C(CN1C(=O)/C(=C2\SC(=S)N(C3CCS(=O)(=O)C3)C2=O)c2ccccc21)Nc1ccccc1 (stereo not given) | < 0.4
75 | COc1ccc(N2Cc3cccc(C(=O)O)c3C2=O)cc1 | 4.79
76 | Nc1c(C(=O)NCC2CCCO2)sc2nc3c(c(-c4ccco4)c12)CC/C3=C\c1ccco1 (stereo not given) | 0.8
77 | CC(C)(O)C#Cc1ccc(CN2CCN(C3CCCCC3)C(CCO)C2)cc1 (stereo not given) | > 54
78 | Cc1ccc(NC(=O)c2cc(N3C(=O)C=CC3=O)ccc2Cl)cc1C | < 0.4
79 | O=C(N/N=C/c1ccc(O)cc1O)c1ccc(CN2C(=O)c3cccc4cccc2c34)cc1 | 1.29
80 | CNc1sc(C(=O)c2ccc(F)cc2)c(N)c1-c1nc2ccccc2s1 | 2.09
81 | O=C(O)c1ccccc1N/N=C/c1c(Sc2nnnn2-c2ccccc2)nc2ccccn2c1=O | < 0.4

Row | SMILES | IC50 [µM]
82 | O=C1c2ccccc2C(=O)N1/N=C/c1ccc(O)c(O)c1O | < 0.4
83 | CC(=O)Nc1ccc(-c2csc(NC(=O)C3CC(=O)N(c4ccc5c(c4)OCCO5)C3)n2)cc1 (stereo not given) | 3.25
84 | CCOC(=O)c1cc(-c2ccco2)nc2c1c(C)nn2-c1cccc(Cl)c1 | 2.36
85 | O=C(Nc1cccc(S(=O)(=O)NC2=NCCCCC2)c1)c1cc(-c2ccco2)nc2ccccc12 | < 0.4
86 | O=C1C(=Cc2cccn2-c2ccccc2)C(=O)c2ccccc21 | 5.19
87 | CN=c1scc(C)n1/N=C/c1ccc(O)c(O)c1O | 1.76
88 | COc1cc(/C=C/c2nc3ccccc3c(=O)n2-c2cccc(O)c2)ccc1O | 10.5
89 | O=c1/c(=C\c2cc([N+](=O)[O-])cc([N+](=O)[O-])c2O)sc2nc3ccccc3n12 | < 0.4
90 | Cc1cc(N(CCO)CCO)ccc1C(c1ccc(N(CCO)CCO)cc1C)c1ccccc1Cl | 1.13
91 | COc1cccc(-n2c(SCc3cc(=O)oc4cc(O)c(O)cc34)nc3ccccc3c2=O)c1 | 2.18
92 | O=c1[nH]c(C(Cl)Cl)nc2sc3c(c12)CCN(Cc1ccccc1)C3 | > 54
93 | O=C(Nc1ccccc1)c1ccc2nc(-c3ccco3)c(-c3ccco3)nc2c1 | 3.83
94 | CCOc1cc(/C=N/Nc2nc(-c3cccs3)c(NC(C)=O)s2)ccc1O | < 0.4
95 | COc1ccc(N2C(=O)/C(=C/C=C/c3ccccc3[N+](=O)[O-])C(=O)NC2=S)cc1 | < 0.4
96 | COc1cccc(/C=N/Nc2ncnc3c2[nH]c2ccc(C)cc23)c1OC | 4.21
97 | CCCOc1ccc(C(=O)Nc2ccc(N(C)C)cc2)cc1 | > 54
98 | CN1CCN(c2ccc([N+](=O)[O-])cc2/C=N/NC(=O)c2ccc(F)cc2)CC1 | 4.75
99 | CCCCOC(=O)Nc1ccc(N(C)C)cc1 | 52.5
100 | Cc1cc2nc(/C=C/c3nc4cc(C)c(C)cc4[nH]3)[nH]c2cc1C | 4.54
101 | CCOC(=O)c1sc(NC(=O)Nc2ccc(Cl)cc2)cc1C | 4.11
102 | CCOc1ccc(/C=C/[N+](=O)[O-])c2ccccc12 | 1.7
103 | N#Cc1c(NC(=O)c2cccc(S(=O)(=O)Nc3ccc(C(=O)O)cc3)c2)sc2c1CCCC2 | 9.51
104 | COc1ccc2nc(S(=O)Cc3ncc(C)c(OC)c3C)[nH]c2c1 (stereo not given) | < 0.4
105 | CCN1C(=O)/C(=C/c2ccc3c(c2)CCN3CCCCl)C(=O)NC1=S | 2.57
